Experimental data from ChEMBL document CHEMBL4680148, “Semisynthesis and biological evaluation of amidochelocardin derivatives as broad-spectrum antibiotics” (Eur J Med Chem, 2020).
Values after ≈ are worked out from the molar mass of the structure shown.

Experiments:
[1] = test system: Klebsiella pneumoniae; test: Antibacterial activity against Klebsiella pneumoniae DSM-30104 assessed as minimum inhibitory concentration required for inhibition of bacterial growth measured after 18 hrs by microdilution method; assay type: functional
[2] = test system: Enterococcus faecium; test: Antibacterial activity against Enterococcus faecium DSM-20477 assessed as minimum inhibitory concentration required for inhibition of bacterial growth measured after 18 hrs by microdilution method; assay type: functional
[3] = test system: Staphylococcus aureus; test: Antibacterial activity against Staphylococcus aureus DSM-346 assessed as minimum inhibitory concentration required for inhibition of bacterial growth measured after 18 hrs by microdilution method; assay type: functional
[4] = test system: Pseudomonas aeruginosa; test: Antibacterial activity against Pseudomonas aeruginosa PA14 assessed as minimum inhibitory concentration required for inhibition of bacterial growth measured after 18 hrs by microdilution method; assay type: functional
[5] = test system: Pseudomonas aeruginosa; test: Antibacterial activity against Pseudomonas aeruginosa PA14 delta mexAB assessed as minimum inhibitory concentration required for inhibition of bacterial growth measured after 18 hrs by microdilution method; assay type: functional
[6] = test system: Staphylococcus aureus; test: Antibacterial activity against Staphylococcus aureus DSM-11822 assessed as minimum inhibitory concentration required for inhibition of bacterial growth measured after 18 hrs by microdilution method; assay type: functional
[7] = test system: Escherichia coli; test: Antibacterial activity against Escherichia coli assessed as minimum inhibitory concentration required for inhibition of bacterial growth measured after 18 hrs by microdilution method; assay type: functional
[8] = test system: Escherichia coli; test: Antibacterial activity against Escherichia coli assessed as minimum inhibitory concentration required for inhibition of bacterial growth in presence of outer membrane permeabilizer PMBN measured after 18 hrs by microdilution method; assay type: functional
[9] = test system: Staphylococcus aureus; test: Antibacterial activity against Staphylococcus aureus Newman assessed as minimum inhibitory concentration required for inhibition of bacterial growth measured after 18 hrs by microdilution method; assay type: functional
[10] = test system: Escherichia coli; test: Antibacterial activity against Escherichia coli DSM-1116 assessed as minimum inhibitory concentration required for inhibition of bacterial growth in presence of outer membrane permeabilizer PMBN measured after 18 hrs by microdilution method; assay type: functional
[11] = test system: Escherichia coli; test: Antibacterial activity against Escherichia coli DSM-1116 assessed as minimum inhibitory concentration required for inhibition of bacterial growth measured after 18 hrs by microdilution method; assay type: functional
[12] = Stability of the compound in Escherichia coli assessed as intact compound by LC-MS analysis; assay type: ADME
[13] = Stability of the compound in Escherichia coli growth medium assessed as intact compound by LC-MS analysis; assay type: physicochemical
[14] = test system: Pseudomonas aeruginosa; test: Antibacterial activity against Pseudomonas aeruginosa PA14 delta mexAB assessed as minimum inhibitory concentration required for inhibition of bacterial growth in presence of outer membrane permeabilizer PMBN measured after 18 hrs by microdilution method; assay type: functional
[15] = test system: Pseudomonas aeruginosa; test: Antibacterial activity against Pseudomonas aeruginosa DSM-1128 assessed as minimum inhibitory concentration required for inhibition of bacterial growth measured after 18 hrs by microdilution method; assay type: functional
[16] = test system: Klebsiella pneumoniae; test: Antibacterial activity against Klebsiella pneumoniae DSM-30104 assessed as minimum inhibitory concentration required for inhibition of bacterial growth in presence of outer membrane permeabilizer PMBN measured after 18 hrs by microdilution method; assay type: functional

MIC [1] [µg/mL]	MIC [2] [µg/mL]	MIC [4] [µg/mL]	MIC [5] [µg/mL]	MIC [6] [µg/mL]	MIC [9] [µg/mL]	Compound	other results
> 64	> 64	> 64	–	–	–	CN[C@H]1C(O)=C(C(N)=O)C(=O)[C@@]2(O)C(=O)c3c(c(C)c4ccc(C)c(O)c4c3O)C[C@@H]12	MIC [3]: > 64 µg/mL
> 64	–	> 64	64 (≈ 117 µM)	4 (≈ 7.32 µM)	–	COc1ccc(C(=O)N[C@H]2C(O)=C(C(N)=O)C(=O)[C@@]3(O)C(=O)c4c(c(C)c5ccc(C)c(O)c5c4O)C[C@@H]23)cc1	–
> 64	0.25 (≈ 0.457 µM)	> 64	–	> 64	–	Cc1ccc2c(C)c3c(c(O)c2c1O)C(=O)[C@]1(O)C(=O)C(C(N)=O)=C(O)[C@H](NC(=O)OCc2ccccc2)[C@@H]1C3	–
8 (≈ 18.6 µM)	–	8 (≈ 18.6 µM)	4 (≈ 9.29 µM)	4 (≈ 9.29 µM)	–	Cc1cc(F)c2c(C)c3c(c(O)c2c1O)C(=O)[C@]1(O)C(=O)C(C(N)=O)=C(O)[C@H](N)[C@@H]1C3	–
> 64	–	> 64	–	1 (≈ 1.81 µM)	–	Cc1ccc2c(C)c3c(c4c2c1O[Si](C(C)(C)C)(C(C)(C)C)O4)C(=O)[C@]1(O)C(=O)C(C(N)=O)=C(O)[C@H](N)[C@@H]1C3	MIC [7]: 64 µg/mL (≈ 116 µM); MIC [8]: 8 µg/mL
–	> 64	–	32 (≈ 66.2 µM)	–	64 (≈ 132 µM)	Cc1ccc2c(C)c3c(c(O)c2c1O)C(=O)[C@]1(O)C(=O)C(C(N)=O)=C(O)[C@H](NC(=O)CCN)[C@@H]1C3	MIC [10]: 8 µg/mL; MIC [11]: 16 µg/mL (≈ 33.1 µM)
–	16 (≈ 35.2 µM)	–	–	–	16 (≈ 35.2 µM)	CC(=O)Oc1c(C)ccc2c(C)c3c(c(O)c12)C(=O)[C@]1(O)C(=O)C(C(N)=O)=C(O)[C@H](N)[C@@H]1C3	Stabilty [12]: Stable; Stabilty [13]: Stable; MIC [14]: 1 µg/mL; MIC [11]: 8 µg/mL (≈ 17.6 µM)
> 64	–	> 64	> 64	0.125 (≈ 0.23 µM)	–	Cc1ccc2c(C)c3c(c(O)c2c1O)C(=O)[C@]1(O)C(=O)C(C(N)=O)=C(O)[C@H](N2C(=O)c4ccccc4C2=O)[C@@H]1C3	MIC [7]: > 64 µg/mL; MIC [8]: 0.5 µg/mL
2	8	64	4	8	–	CC(=O)C1=C(O)[C@H](N)[C@@H]2Cc3c(c(O)c4c(O)c(C)ccc4c3C)C(=O)[C@]2(O)C1=O.O=C([O-])CC(O)(CC(=O)[O-])C(=O)[O-].[Na+].[Na+].[Na+]	MIC [11]: 2 µg/mL
16 (≈ 33 µM)	–	> 64	64 (≈ 132 µM)	2 (≈ 4.13 µM)	–	CCOC(=O)N[C@H]1C(O)=C(C(N)=O)C(=O)[C@@]2(O)C(=O)c3c(c(C)c4ccc(C)c(O)c4c3O)C[C@@H]12	–
–	4 (≈ 6.72 µM)	–	–	–	4 (≈ 6.72 µM)	Cc1ccc2c(C)c3c(c(O)c2c1OC(=O)c1ccc(Br)cc1)C(=O)[C@]1(O)C(=O)C(C(N)=O)=C(O)[C@H](N)[C@@H]1C3	Stabilty [12]: Stable; Stabilty [13]: Stable; MIC [14]: > 64 µg/mL; MIC [10]: 64 µg/mL; MIC [11]: > 64 µg/mL
–	8 (≈ 17.2 µM)	–	> 64	–	4 (≈ 8.58 µM)	C=CC(=O)N[C@H]1C(O)=C(C(N)=O)C(=O)[C@@]2(O)C(=O)c3c(c(C)c4ccc(C)c(O)c4c3O)C[C@@H]12	MIC [10]: 2 µg/mL; MIC [11]: 32 µg/mL (≈ 68.6 µM)
> 64	> 64	> 64	–	> 64	–	Cc1cc([N+](=O)[O-])c2c(C)c3c(c(O)c2c1O)C(=O)[C@]1(O)C(=O)C(C(N)=O)=C(O)[C@H](N)[C@@H]1C3	–
8 (≈ 17.9 µM)	–	–	–	–	4 (≈ 8.95 µM)	Cc1cc(Cl)c2c(C)c3c(c(O)c2c1O)C(=O)[C@]1(O)C(=O)C(C(N)=O)=C(O)[C@H](N)[C@@H]1C3	MIC [15]: 16 µg/mL (≈ 35.8 µM); MIC [16]: 8 µg/mL
> 64	–	> 64	–	1 (≈ 1.93 µM)	–	COc1ccc(-c2cc(C)c(O)c3c(O)c4c(c(C)c23)C[C@H]2[C@@H](N)C(O)=C(C(N)=O)C(=O)[C@@]2(O)C4=O)cc1	MIC [7]: 32 µg/mL (≈ 61.7 µM); MIC [8]: 2 µg/mL
64 (≈ 130 µM)	–	> 64	> 64	2 (≈ 4.06 µM)	–	Cc1ccc2c(C)c3c(c(O)c2c1O)C(=O)[C@]1(O)C(=O)C(C(N)=O)=C(O)[C@H](N2C(=O)C=CC2=O)[C@@H]1C3	MIC [7]: > 64 µg/mL; MIC [8]: 8 µg/mL
8 (≈ 16.3 µM)	–	–	–	–	8 (≈ 16.3 µM)	Cc1cc(Br)c2c(C)c3c(c(O)c2c1O)C(=O)[C@]1(O)C(=O)C(C(N)=O)=C(O)[C@H](N)[C@@H]1C3	MIC [15]: 32 µg/mL (≈ 65.1 µM); MIC [16]: 4 µg/mL
> 64	–	–	–	–	32 (≈ 75.1 µM)	CC1=CC(=O)c2c(C)c3c(c(O)c2C1=O)C(=O)[C@]1(O)C(=O)C(C(N)=O)=C(O)[C@H](N)[C@@H]1C3	MIC [15]: > 64 µg/mL; MIC [16]: 64 µg/mL
> 64	32 (≈ 65.2 µM)	> 64	–	> 64	–	Cc1ccc2c(C)c3c(c(O)c2c1O)C(=O)[C@]1(O)C(=O)C(C(N)=O)=C(O)[C@H](NS(C)(=O)=O)[C@@H]1C3	–
32 (≈ 60.3 µM)	–	> 64	–	0.5 (≈ 0.942 µM)	–	Cc1cc(C)c(-c2cc(C)c(O)c3c(O)c4c(c(C)c23)C[C@H]2[C@@H](N)C(O)=C(C(N)=O)C(=O)[C@@]2(O)C4=O)c(C)c1	MIC [7]: > 64 µg/mL; MIC [8]: 8 µg/mL
> 64	32 (≈ 70.4 µM)	> 64	–	> 64	–	CC(=O)N[C@H]1C(O)=C(C(N)=O)C(=O)[C@@]2(O)C(=O)c3c(c(C)c4ccc(C)c(O)c4c3O)C[C@@H]12	–
–	> 64	–	32 (≈ 57.9 µM)	–	> 64	Cc1ccc2c(C)c3c(c(O)c2c1O)C(=O)[C@]1(O)C(=O)C(C(N)=O)=C(O)[C@H](NC(=O)CN2CCN(C)CC2)[C@@H]1C3	MIC [10]: 32 µg/mL; MIC [11]: 54 µg/mL (≈ 97.7 µM)
> 64	> 64	> 64	–	–	–	Cc1ccc2c(C)c3c(c(O)c2c1O)C(=O)[C@]1(O)C(=O)C(C(N)=O)=C(O)[C@H](N(C)C)[C@@H]1C3	MIC [3]: > 64 µg/mL
2	4	16	0.5	8	–	Cc1ccc2c(C)c3c(c(O)c2c1O)C(=O)[C@]1(O)C(=O)C(C(N)=O)=C(O)[C@H](N)[C@@H]1C3.O=C([O-])CC(O)(CC(=O)[O-])C(=O)[O-].[Na+].[Na+].[Na+]	Stabilty [12]: Unstable; Stabilty [13]: Unstable; MIC [11]: 0.5 µg/mL
